# Literature values as cited in patent US20120083772A1, “CORNEAL TREATMENT SYSTEM AND METHOD” (CURVERIGHT LLC, priority 2010, published 2012).
# System: living cells
smiles,measurement,value
OO [hydrogen peroxide],concentration that can stop the proliferation of living cells,1 µM
